In US7951798B2, “Polymorphs of olanzapine hydrochloride” (Egis Hyogyszergyar Nyrt., priority 2003, dated 2011) one finds solubility in water data, which are given here for one compound.

The series can be described thus: solubility in water (analytical studies). The class given is physicochemical. Particulars: compared with the new polymorphic hydrochloride salts.

Regarding `Cc1cc2c(s1)Nc1ccccc1N=C2N1CCN(C)CC1` [olanzapine base, 2-methyl-4-(4-methylpiperazin-1-yl)-10H-thieno-[2,3-b][1,5]-benzodiazepine], the solubility in water entry is given as “significantly lower”.
